The supplement of paper PMC11451515

Columns and labels:
Details in all cases: 48 h
P12-Ichikawa [1] = experiment: AUC of viability dose-response curve (% viability x log10 dose units); higher = less sensitive
In short: (§1)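 Area under the curve was integrated by trapezoidal rule from a log-logistic fit of normalised viability, with curves exceeding full viability scaled and quality-control failures removed. The fit had four parameters over log10 doses. Viability came from CellTiter-Glo One luminescence, normalised per plate to DMSO and cell-free wells, after leukemia cells adapted to each medium (500 or 1000 cells/well, 1536-well plates) were exposed to library compounds in DMSO for 48 h at 37°C. The 11 threefold doses ran from 47 μM to 0.79 nM.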

SEM cells [2] = experiment: as above
In short: as §1

NOMO1 [3] = experiment: as above
In short: as §1

P12-Ichikawa [4] = experiment: cell viability relative to DMSO control; higher = less cytotoxic
In short: (§2)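 In 1536-well plates, 5 μl of leukemia cells were seeded per well: 500 cells/well for NOMO1 or SEM and 1000 cells/well for P12-Ichikawa. Each line had first been adapted for at least four passages in each medium. Library compounds in DMSO were pin-dosed at 11 threefold concentrations between 47 μM and 0.79 nM, and CellTiter-Glo One luminescence was read after 48 h at 37°C. Viability is a per-plate percentage relative to DMSO wells, with cell-free wells as background.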

SEM cells [5] = experiment: as above
In short: as §2

NOMO1 [6] = experiment: as above
In short: as §2

Cc1cn([C@H]2C=C[C@@H](CO)O2)c(=O)[nH]c1=O
AUC of viability dose-response curve
Details	NOMO1 [3]	P12-Ichikawa [1]	SEM cells [2]
HPLM + 10% dialyzed FBS	474	468	465
RPMI 5 mM glucose + 10% FBS	435	475	450
RPMI 5 mM glucose + 10% dialyzed FBS	453	474	469

cell viability [%]
Details	NOMO1 [6]	P12-Ichikawa [4]	SEM cells [5]
HPLM + 10% dialyzed FBS, 0.000781 µM	105	104	88.9
HPLM + 10% dialyzed FBS, 0.00234 µM	101	114	106
HPLM + 10% dialyzed FBS, 0.00702 µM	116	108	104
HPLM + 10% dialyzed FBS, 0.0211 µM	123	108	124
HPLM + 10% dialyzed FBS, 0.0632 µM	101	112	114
HPLM + 10% dialyzed FBS, 0.19 µM	114	103	99.6
HPLM + 10% dialyzed FBS, 0.569 µM	125	119	109
HPLM + 10% dialyzed FBS, 1.71 µM	115	103	130
HPLM + 10% dialyzed FBS, 5.12 µM	96.4	115	127
HPLM + 10% dialyzed FBS, 15.4 µM	108	116	112
HPLM + 10% dialyzed FBS, 46.1 µM	107	108	103
RPMI 5 mM glucose + 10% FBS, 0.000781 µM	88.6	100	89.5
RPMI 5 mM glucose + 10% FBS, 0.00234 µM	94.3	111	110
RPMI 5 mM glucose + 10% FBS, 0.00702 µM	100	107	109
RPMI 5 mM glucose + 10% FBS, 0.0211 µM	106	108	108
RPMI 5 mM glucose + 10% FBS, 0.0632 µM	98.7	105	110
RPMI 5 mM glucose + 10% FBS, 0.19 µM	111	104	107
RPMI 5 mM glucose + 10% FBS, 0.569 µM	111	112	117
RPMI 5 mM glucose + 10% FBS, 1.71 µM	102	115	110
RPMI 5 mM glucose + 10% FBS, 5.12 µM	116	108	104
RPMI 5 mM glucose + 10% FBS, 15.4 µM	120	110	126
RPMI 5 mM glucose + 10% FBS, 46.1 µM	115	98	106
RPMI 5 mM glucose + 10% dialyzed FBS, 0.000781 µM	106	99.4	91.2
RPMI 5 mM glucose + 10% dialyzed FBS, 0.00234 µM	124	101	93.9
RPMI 5 mM glucose + 10% dialyzed FBS, 0.00702 µM	118	110	104
RPMI 5 mM glucose + 10% dialyzed FBS, 0.0211 µM	112	105	112
RPMI 5 mM glucose + 10% dialyzed FBS, 0.0632 µM	125	103	118
RPMI 5 mM glucose + 10% dialyzed FBS, 0.19 µM	123	101	96.4
RPMI 5 mM glucose + 10% dialyzed FBS, 0.569 µM	122	112	107
RPMI 5 mM glucose + 10% dialyzed FBS, 1.71 µM	121	108	125
RPMI 5 mM glucose + 10% dialyzed FBS, 5.12 µM	113	99.2	116
RPMI 5 mM glucose + 10% dialyzed FBS, 15.4 µM	129	107	104
RPMI 5 mM glucose + 10% dialyzed FBS, 46.1 µM	131	92.8	74.2

O=C([O-])C[C@H](O)C[C@H](O)/C=C/c1c(C2CC2)nc2ccccc2c1-c1ccc(F)cc1
AUC of viability dose-response curve
Details	NOMO1 [3]	P12-Ichikawa [1]	SEM cells [2]
HPLM + 10% dialyzed FBS	443	407	395
RPMI 5 mM glucose + 10% FBS	450	375	418
RPMI 5 mM glucose + 10% dialyzed FBS	440	390	413

cell viability [%]
Details	NOMO1 [6]	P12-Ichikawa [4]	SEM cells [5]
HPLM + 10% dialyzed FBS, 0.000781 µM	101	107	82.3
HPLM + 10% dialyzed FBS, 0.00234 µM	104	111	73.1
HPLM + 10% dialyzed FBS, 0.00702 µM	130	115	97.5
HPLM + 10% dialyzed FBS, 0.0211 µM	120	110	102
HPLM + 10% dialyzed FBS, 0.0632 µM	125	117	89.1
HPLM + 10% dialyzed FBS, 0.19 µM	116	114	90
HPLM + 10% dialyzed FBS, 0.569 µM	112	110	86.1
HPLM + 10% dialyzed FBS, 1.71 µM	132	103	83.9
HPLM + 10% dialyzed FBS, 5.12 µM	109	69.3	87.4
HPLM + 10% dialyzed FBS, 15.4 µM	87.7	49.1	70
HPLM + 10% dialyzed FBS, 46.1 µM	12	26.2	18.9
RPMI 5 mM glucose + 10% FBS, 0.000781 µM	108	110	99.4
RPMI 5 mM glucose + 10% FBS, 0.00234 µM	116	117	85.2
RPMI 5 mM glucose + 10% FBS, 0.00702 µM	122	116	99.1
RPMI 5 mM glucose + 10% FBS, 0.0211 µM	114	113	97.9
RPMI 5 mM glucose + 10% FBS, 0.0632 µM	111	124	108
RPMI 5 mM glucose + 10% FBS, 0.19 µM	112	116	99.4
RPMI 5 mM glucose + 10% FBS, 0.569 µM	116	105	96.7
RPMI 5 mM glucose + 10% FBS, 1.71 µM	134	87.9	109
RPMI 5 mM glucose + 10% FBS, 5.12 µM	109	52.3	81.6
RPMI 5 mM glucose + 10% FBS, 15.4 µM	97.8	19.5	43.7
RPMI 5 mM glucose + 10% FBS, 46.1 µM	23.7	14.7	10.7
RPMI 5 mM glucose + 10% dialyzed FBS, 0.000781 µM	114	113	99.1
RPMI 5 mM glucose + 10% dialyzed FBS, 0.00234 µM	109	114	81
RPMI 5 mM glucose + 10% dialyzed FBS, 0.00702 µM	110	113	91.7
RPMI 5 mM glucose + 10% dialyzed FBS, 0.0211 µM	122	107	95.9
RPMI 5 mM glucose + 10% dialyzed FBS, 0.0632 µM	116	119	112
RPMI 5 mM glucose + 10% dialyzed FBS, 0.19 µM	119	116	85
RPMI 5 mM glucose + 10% dialyzed FBS, 0.569 µM	129	115	79.6
RPMI 5 mM glucose + 10% dialyzed FBS, 1.71 µM	115	93.6	97.9
RPMI 5 mM glucose + 10% dialyzed FBS, 5.12 µM	101	58.2	94.5
RPMI 5 mM glucose + 10% dialyzed FBS, 15.4 µM	86.4	36.9	69.1
RPMI 5 mM glucose + 10% dialyzed FBS, 46.1 µM	22.9	19.3	13.6

CCOc1cc2ncc(C#N)c(Nc3ccc(OCc4ccccn4)c(Cl)c3)c2cc1NC(=O)/C=C/CN(C)C
AUC of viability dose-response curve
Details	NOMO1 [3]	P12-Ichikawa [1]	SEM cells [2]
HPLM + 10% dialyzed FBS	279	293	276
RPMI 5 mM glucose + 10% FBS	303	320	209
RPMI 5 mM glucose + 10% dialyzed FBS	328	321	268

cell viability [%]
Details	NOMO1 [6]	P12-Ichikawa [4]	SEM cells [5]
HPLM + 10% dialyzed FBS, 0.000781 µM	–	116	109
HPLM + 10% dialyzed FBS, 0.00234 µM	–	124	122
HPLM + 10% dialyzed FBS, 0.00702 µM	–	122	126
HPLM + 10% dialyzed FBS, 0.0211 µM	–	115	122
HPLM + 10% dialyzed FBS, 0.0632 µM	–	117	111
HPLM + 10% dialyzed FBS, 0.19 µM	–	115	107
HPLM + 10% dialyzed FBS, 0.569 µM	–	62.5	19.4
HPLM + 10% dialyzed FBS, 1.71 µM	–	6.67	9.21
HPLM + 10% dialyzed FBS, 5.12 µM	–	4.65	7.03
HPLM + 10% dialyzed FBS, 15.4 µM	–	4.41	6.73
HPLM + 10% dialyzed FBS, 46.1 µM	–	3.56	4.72
RPMI 5 mM glucose + 10% FBS, 0.000781 µM	119	111	87
RPMI 5 mM glucose + 10% FBS, 0.00234 µM	109	125	95.4
RPMI 5 mM glucose + 10% FBS, 0.00702 µM	114	120	83.4
RPMI 5 mM glucose + 10% FBS, 0.0211 µM	105	118	80.8
RPMI 5 mM glucose + 10% FBS, 0.0632 µM	112	120	79.7
RPMI 5 mM glucose + 10% FBS, 0.19 µM	124	121	31.9
RPMI 5 mM glucose + 10% FBS, 0.569 µM	49.7	121	7.35
RPMI 5 mM glucose + 10% FBS, 1.71 µM	20.8	11.3	5.75
RPMI 5 mM glucose + 10% FBS, 5.12 µM	13.6	6.84	5.48
RPMI 5 mM glucose + 10% FBS, 15.4 µM	11.2	5.28	4.73
RPMI 5 mM glucose + 10% FBS, 46.1 µM	8.95	5.4	3.12
RPMI 5 mM glucose + 10% dialyzed FBS, 0.000781 µM	116	119	119
RPMI 5 mM glucose + 10% dialyzed FBS, 0.00234 µM	111	130	133
RPMI 5 mM glucose + 10% dialyzed FBS, 0.00702 µM	103	121	117
RPMI 5 mM glucose + 10% dialyzed FBS, 0.0211 µM	109	122	116
RPMI 5 mM glucose + 10% dialyzed FBS, 0.0632 µM	117	119	121
RPMI 5 mM glucose + 10% dialyzed FBS, 0.19 µM	113	118	95.9
RPMI 5 mM glucose + 10% dialyzed FBS, 0.569 µM	83.9	122	16.9
RPMI 5 mM glucose + 10% dialyzed FBS, 1.71 µM	36.2	13.5	8.13
RPMI 5 mM glucose + 10% dialyzed FBS, 5.12 µM	18.3	7.04	6.73
RPMI 5 mM glucose + 10% dialyzed FBS, 15.4 µM	13	5.08	6.47
RPMI 5 mM glucose + 10% dialyzed FBS, 46.1 µM	11.5	4.99	4.68
